Laboratory results: patent US20040106584A1, “Prophylactic docosahexaenoic acid therapy for patients with subclinical inflammation” (priority 2002, published 2004)

Key:
[1] = cited from earlier work
[2] = in vivo; cited from earlier work
[3] = test system: ADP-induced platelet aggregation; details: oral loading dose of 300-600 mg; cited from earlier work
[4] = test system: obese diabetic mice; details: 100 mg/kg body weight, but not normal or lean diabetic mice; cited from earlier work
[5] = test system: C-reactive protein (CRP); assay: Clinical study of DHASCO capsules co-administered with statin in dyslipidemia patients: CRP levels; assay type: in vivo, human; details: 20 patients treated with DHA, 200 or 1000 mg daily
Experimental: In a clinical study DHASCO capsules (which contained DHA as a triglyceride oil extracted from Crypthecodinium cohnii cells, obtained from Martek Biosciences Corp., Columbia, Md.) were co-administered with statin medication to patients with dyslipidemia. Hyperlipidemic patients already being treated with a stable dose of a statin medication but still failing to meet NCEP guidelines for LDL-cholesterol or triglycerides were treated with either 200 or 1000 mg of DHA daily for 12 months. HbAlc levels (glycosylated hemoglobin, a marker of glycemic control) were measured in plasma at baseline and after 8 or 12 months of treatment.
Reduction in CRP of this extent is clinically significant, and may be correlated with a benefit of reduced risk of Type II diabetes onset, independent of other Type II risk factors.

[6] = target: T1, platelet glycoprotein IIb/IIa receptors (Homo sapiens, UniProt P05106+P08514); details: cited from earlier work
T1 construct: host or cells: platelets in vivo (endogenous receptor)

CC(=O)Oc1ccccc1C(=O)O [Aspirin, acetylsalicylic acid]
reduction of the risk of serious vascular events ([1]; patients at high risk of such an event): about a quarter

COC(=O)[C@H](c1ccccc1Cl)N1CCc2sccc2C1 [Clopidogrel]
risk of skin rash and diarrhea compared with aspirin [2]: about a third | reduction of the risk of serious vascular events compared with aspirin ([1]; high-risk patients): about 10% | time to detectable inhibition of ADP-induced platelet aggregation [3]: 2 h | time to maximal inhibition of ADP-induced platelet aggregation [3]: 6 h

CC/C=C\C/C=C\C/C=C\C/C=C\C/C=C\C/C=C\CCC(=O)OCC [DHA ethyl ester]
blood glucose [4]: reduced | insulin sensitivity [4]: enhanced | plasma triglycerides [4]: reduced

CC/C=C\C/C=C\C/C=C\C/C=C\C/C=C\C/C=C\CCC(=O)O [DHA, docosahexaenoic acid]
overall reduction in CRP level [5]: 15%

Clc1ccccc1CN1CCc2sccc2C1 [Ticlopidine]
risk of skin rash and diarrhea compared with aspirin [2]: doubles

abciximab: humanized mouse antibody fragment with a high binding affinity for the glycoprotein IIb/IIa receptor
persistent blockade of platelet glycoprotein IIb/IIa receptors ([6]; 24 hours after cessation of an infusion): more than 50% | time to recovery of platelet function ([6]; after cessation of an infusion): 2 days
